The structures appear in SMILES notation.

Results on 9 molecules are retold here after patent US20220046923A1, “HERBICIDAL CINNOLINIUM COMPOUNDS” (SYNGENTA CROP PROTECTION AG, priority 2018, published 2022).

Common to all, as to assay: Post-emergence efficacy, glasshouse spray test
What all share (type): in vivo
Holding throughout (conditions): evaluated after 13 days; for pest or weed control at 1000 g/ha: application rate 1000 g/Ha

Experiment [1] has as its system Lolium perenne (LOLPE). The gist of the method:
(§1)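 Compound formulated in acetone/IF50 and diluted into 0.25% or 1% Empicol ESC70 with 1% ammonium sulphate was sprayed on glasshouse seedlings 14 days after sowing. Growth continued at 24/16 °C, 14 h light, 65% humidity with twice-daily watering; damage (0–100) scored on day 13.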

Experiment [2] has as its system Setaria faberi (SETFA). The method in brief: as §1
Experiment [3] concerns Echinochloa crus-galli (ECHCG). The gist of the method: as §1
The test system of experiment [4] is Digitaria sanguinalis (DIGSA). The gist of the method:
as §1

For experiment [5], the system named is Euphorbia heterophylla (EPHHL). The gist of the method:
as §1

The subject of experiment [6] is Amaranthus palmeri (AMAPA). The gist of the method: as §1
Experiment [7] concerns Chenopodium album (CHEAL). The method in brief: as §1
Experiment [8] has as its system Eleusine indica (ELEIN). The method in brief: as §1
In experiment [9] the test system is Ipomoea hederacea (IPOHE). The method in brief:
as §1

Setting [10] is: Lolium perenne, post-emergence, 312 h, read-out: Control of weed species LOLPE after post-emergence application (100=total damage to plant; 0=no damage to plant).
[11] abbreviates: Setaria faberi, post-emergence, 312 h, read-out: Control of weed species SETFA after post-emergence application (100=total damage to plant; 0=no damage to plant).
[12] abbreviates: Echinochloa crus-galli, post-emergence, 312 h, read-out: Control of weed species ECHCG after post-emergence application (100=total damage to plant; 0=no damage to plant).
Where [13] appears, read: Digitaria sanguinalis, post-emergence, 312 h, read-out: Control of weed species DIGSA after post-emergence application (100=total damage to plant; 0=no damage to plant).
The mark [14] stands for this setting: Euphorbia heterophylla, post-emergence, 312 h, read-out: Control of weed species EPHHL after post-emergence application (100=total damage to plant; 0=no damage to plant).
Setting [15] is: Amaranthus palmeri, post-emergence, 312 h, read-out: Control of weed species AMAPA after post-emergence application (100=total damage to plant; 0=no damage to plant).
The mark [16] stands for this setting: Chenopodium album, post-emergence, 312 h, read-out: Control of weed species CHEAL after post-emergence application (100=total damage to plant; 0=no damage to plant).
Setting [17] is: Eleusine indica, post-emergence, 312 h, read-out: Control of weed species ELEIN after post-emergence application (100=total damage to plant; 0=no damage to plant).
[18] abbreviates: Ipomoea hederacea, post-emergence, 312 h, read-out: Control of weed species IPOHE after post-emergence application (100=total damage to plant; 0=no damage to plant).
Where [19] appears, read: Lolium perenne, post-emergence, 312 h, application rate 500 g/Ha, read-out: Control of weed species LOLPE after post-emergence application (100=total damage to plant; 0=no damage to plant).
Setting [20] is: Setaria faberi, post-emergence, 312 h, application rate 500 g/Ha, read-out: Control of weed species SETFA after post-emergence application (100=total damage to plant; 0=no damage to plant).
Where [21] appears, read: Echinochloa crus-galli, post-emergence, 312 h, application rate 500 g/Ha, read-out: Control of weed species ECHCG after post-emergence application (100=total damage to plant; 0=no damage to plant).
Setting [22] is: Digitaria sanguinalis, post-emergence, 312 h, application rate 500 g/Ha, read-out: Control of weed species DIGSA after post-emergence application (100=total damage to plant; 0=no damage to plant).
Where [23] appears, read: Euphorbia heterophylla, post-emergence, 312 h, application rate 500 g/Ha, read-out: Control of weed species EPHHL after post-emergence application (100=total damage to plant; 0=no damage to plant).
The mark [24] stands for this setting: Amaranthus palmeri, post-emergence, 312 h, application rate 500 g/Ha, read-out: Control of weed species AMAPA after post-emergence application (100=total damage to plant; 0=no damage to plant).
[25] abbreviates: Chenopodium album, post-emergence, 312 h, application rate 500 g/Ha, read-out: Control of weed species CHEAL after post-emergence application (100=total damage to plant; 0=no damage to plant).
Where [26] appears, read: Eleusine indica, post-emergence, 312 h, application rate 500 g/Ha, read-out: Control of weed species ELEIN after post-emergence application (100=total damage to plant; 0=no damage to plant).
Setting [27] is: Ipomoea hederacea, post-emergence, 312 h, application rate 500 g/Ha, read-out: Control of weed species IPOHE after post-emergence application (100=total damage to plant; 0=no damage to plant).

`O=S(=O)([O-])CC[n+]1ccc2ccc(Cl)cc2n1` [Compound A94]: the pest or weed control at 1000 g/ha in experiment [1] (setting [10]) came to 40%; in experiment [2] (setting [11]), 50%; in experiment [3] (setting [12]) it was 40%; in experiment [4] (setting [13]) it was 50%; in [5] (setting [14]), 100%; in experiment [6] (setting [15]), 100%. Besides, the pest or weed control at 1000 g/ha came to 90% in [7] (setting [16]), 90% in experiment [8] (setting [17]) and 40% in experiment [9] (setting [18]).

With `O=S(=O)([O-])CC[n+]1ccc2cccc(C(F)(F)F)c2n1` [Compound A95], the pest or weed control at 1000 g/ha was 0% in experiment [1] (setting [10]); 10% in experiment [2] (setting [11]); 10% in experiment [3] (setting [12]); 10% in experiment [4] (setting [13]); 50% in [5] (setting [14]); 40% in experiment [6] (setting [15]). Further, the pest or weed control at 1000 g/ha was determined as 50% in [7] (setting [16]), 10% in experiment [8] (setting [17]) and 10% in experiment [9] (setting [18]).

As to `O=S(=O)([O-])CC[n+]1ccc2c(Cl)cccc2n1` [Compound A96], the pest or weed control at 1000 g/ha in experiment [1] (setting [10]) is 40%; in experiment [2] (setting [11]), 30%; in experiment [3] (setting [12]) it was 40%; in [4] (setting [13]) it was 60%; in [5] (setting [14]), 100%; in experiment [6] (setting [15]) it was 70%. Moreover, the pest or weed control at 1000 g/ha in [7] (setting [16]) was determined as 100%; in [8] (setting [17]), 60%; in experiment [9] (setting [18]), 20%.

As to `Cc1cccc2n[n+](CCS(=O)(=O)[O-])ccc12` [Compound A97], the pest or weed control at 500 g/ha was 10% in experiment [1] (setting [19]); 60% in experiment [2] (setting [20]); 30% in experiment [3] (setting [21]); 50% in experiment [4] (setting [22]); 80% in experiment [5] (setting [23]); 100% in experiment [6] (setting [24]). Besides, the pest or weed control at 500 g/ha in experiment [7] (setting [25]) came to 90%; in [8] (setting [26]), 70%; in experiment [9] (setting [27]) it was 10%.

Turning to `O=S(=O)([O-])CC[n+]1ccc2cc(C(F)(F)F)ccc2n1` [Compound A98], the pest or weed control at 500 g/ha is 10% in [1] (setting [19]); 0% in [2] (setting [20]); 10% in experiment [3] (setting [21]); 10% in experiment [4] (setting [22]); 40% in experiment [5] (setting [23]); 0% in experiment [6] (setting [24]). In addition, the pest or weed control at 500 g/ha in experiment [7] (setting [25]) came out at 30%; in experiment [8] (setting [26]), 20%; in [9] (setting [27]) it was 0%.

With `CCOP(=O)(CC[n+]1ccc2ccccc2n1)OCC.[Br-]` [Compound A99], in [1] (application rate 500 g/Ha), the “Control of weed species LOLPE after post-emergence application (100=total damage to plant; 0=no damage to plant)” value was 20. Moreover, in experiment [2] (application rate 500 g/Ha), the “Control of weed species SETFA after post-emergence application (100=total damage to plant; 0=no damage to plant)” value was 50. The “Control of weed species ECHCG after post-emergence application (100=total damage to plant; 0=no damage to plant)” value in [3] (application rate 500 g/Ha) is recorded as 40. For the same molecule, the “Control of weed species DIGSA after post-emergence application (100=total damage to plant; 0=no damage to plant)” value in experiment [4] (application rate 500 g/Ha) is 50. Also, the “Control of weed species EPHHL after post-emergence application (100=total damage to plant; 0=no damage to plant)” value in experiment [5] (application rate 500 g/Ha) came to 40. The “Control of weed species AMAPA after post-emergence application (100=total damage to plant; 0=no damage to plant)” value in [6] (application rate 500 g/Ha) was 10. In [7] (application rate 500 g/Ha), the “Control of weed species CHEAL after post-emergence application (100=total damage to plant; 0=no damage to plant)” value is recorded as 20. In addition, the “Control of weed species ELEIN after post-emergence application (100=total damage to plant; 0=no damage to plant)” value in experiment [8] (application rate 500 g/Ha) is 30. For the same molecule, in experiment [9] (application rate 500 g/Ha), the “Control of weed species IPOHE after post-emergence application (100=total damage to plant; 0=no damage to plant)” value is listed as 10.

In the case of `COC(=O)c1ccc2n[n+](CCS(=O)(=O)[O-])ccc2c1` [Compound A100], the pest or weed control at 500 g/ha in [1] (setting [19]) was 0%; in experiment [2] (setting [20]), 20%; in experiment [3] (setting [21]) it was 10%; in experiment [4] (setting [22]), 10%; in experiment [5] (setting [23]), 40%; in experiment [6] (setting [24]), 30%. In addition, the pest or weed control at 500 g/ha in experiment [7] (setting [25]) came out at 30%; in [8] (setting [26]), 10%; in experiment [9] (setting [27]), 30%.

Consider `CCOP(=O)(O)CC[n+]1ccc2ccccc2n1` [Compound A103], for which the pest or weed control at 500 g/ha in experiment [1] (setting [19]) came out at 20%; in experiment [2] (setting [20]), 60%; in [3] (setting [21]), 30%; in experiment [4] (setting [22]) it was 60%; in experiment [5] (setting [23]) it was 40%; in experiment [6] (setting [24]) it was 20%. Also, the figures for the pest or weed control at 500 g/ha in experiment [7] (setting [25]), in [8] (setting [26]) and in experiment [9] (setting [27]) were 0%, 30% and 20%, respectively.

For the molecule `CC(=O)Nc1cccc2cc[n+](CCS(=O)(=O)[O-])nc12` [Compound A107, 2-(8-acetamidocinnolin-2-ium-2-yl)ethanesulfonate], the pest or weed control at 130 g/ha in [1] (Lolium perenne, post-emergence, 312 h, application rate 130 g/Ha, read-out: Control of weed species LOLPE after post-emergence application (100=total damage to plant; 0=no damage to plant)) came out at 40%; in experiment [2] (Setaria faberi, post-emergence, 312 h, application rate 130 g/Ha, read-out: Control of weed species SETFA after post-emergence application (100=total damage to plant; 0=no damage to plant)) it was 70%; in [3] (Echinochloa crus-galli, post-emergence, 312 h, application rate 130 g/Ha, read-out: Control of weed species ECHCG after post-emergence application (100=total damage to plant; 0=no damage to plant)), 80%; in experiment [4] (Digitaria sanguinalis, post-emergence, 312 h, application rate 130 g/Ha, read-out: Control of weed species DIGSA after post-emergence application (100=total damage to plant; 0=no damage to plant)) it was 70%; in [5] (Euphorbia heterophylla, post-emergence, 312 h, application rate 130 g/Ha, read-out: Control of weed species EPHHL after post-emergence application (100=total damage to plant; 0=no damage to plant)), 50%; in [6] (Amaranthus palmeri, post-emergence, 312 h, application rate 130 g/Ha, read-out: Control of weed species AMAPA after post-emergence application (100=total damage to plant; 0=no damage to plant)), 60%. Further, the pest or weed control at 130 g/ha in experiment [7] (Chenopodium album, post-emergence, 312 h, application rate 130 g/Ha, read-out: Control of weed species CHEAL after post-emergence application (100=total damage to plant; 0=no damage to plant)) was 40%; in experiment [8] (Eleusine indica, post-emergence, 312 h, application rate 130 g/Ha, read-out: Control of weed species ELEIN after post-emergence application (100=total damage to plant; 0=no damage to plant)), 40%; in experiment [9] (Ipomoea hederacea, post-emergence, 312 h, application rate 130 g/Ha, read-out: Control of weed species IPOHE after post-emergence application (100=total damage to plant; 0=no damage to plant)), 40%.
